What was measured:
[1] = tested on: PANC-1 cells; experiment: cellular uptake of Pt by ICP-MS, PANC-1; type: cell-based, human
Description: Cellular uptake. All incubations were carried out in the dark. After the designated incubation period, the medium was removed, and the cells were harvested with trypsin and rinsed twice with PBS (1×, 20 mM, pH 7.4), followed by digestion and ICP-MS.
Cancer cells were seeded in a 6-well plate at a density of 5×10^5 cells per well. After incubation for 24 h, the cells were treated with each complex for 6 h.
Cancer cells preincubated with metabolic inhibitor (MIs) were also evaluated. These cells were preincubated with 2-deoxy-D-glucose and oligomycin (50 mM and 5 μM, respectively, 1 h) or NH4Cl (50 mM, 1 h) at 37 ℃ followed by incubation with DMEM containing CDDP, I or II at 37 ℃ for 6 h.
Digestion. Cell pellets were collected by centrifugation and then digested with nitric acid (100 µL) for 2 h at 95 °C, followed by the addition of H2O2 (50 µL) at 95 °C for 0.5 h. HCl (100 µL) was added and kept at 95 °C until the total volume was less than 20 μL. Water was then added to dilute the solution to 1 mL, and the final Pt content was determined by ICP-MS.

[2] = tested on: nuclear DNA of PANC-1 cells; experiment: platination of cellular DNA by ICP-MS; type: cell-based, human; settings: 6 h
Description: DNA platination. Cancer cells were seeded in 6-well plates at a density of 5×10^5 cells per well. After incubation at 37 °C for 24 h, the cells were treated with each complex for 6 h. The attached cells were harvested with trypsin and washed twice with PBS (4 °C). The cell pellets were lysed with the TIANamp Genomic DNA Kit. The DNA concentration was determined using NanoDrop spectrophotometer, and then the isolated DNA was digested with the same method mentioned above. The final Pt content was determined by ICP-MS.

[3] = tested on: MCF-7 cells; experiment: 72 h MTT cytotoxicity, MCF-7; type: cell-based, human
Description: (§1) Cytotoxicity. Tumor cells were cultured overnight after inoculation in RPMI-1640 medium or DMEM supplemented with 10% FBS. All cultures were maintained in an incubator in a highly humidified atmosphere of 95% air with 5% CO2 at 37 °C. Growth inhibition was measured with an MTT assay. Briefly, 2800–7000 cells per well in culture medium (100 μL) were plated in 96-well plates (Corning). The cells were treated in triplicate with different concentrations of complexes at 37 ℃ for 72 h. Stock solutions of CDDP and oxoplatin were prepared in PBS, while stock solutions of conjugates I and II and the ligand MSA-2 were prepared in DMSO. The stock solutions were diluted in complete medium (DMSO < 0.5%). An aliquot of MTT solution (40 μL, 2.5 mg·mL^–1) in PBS buffer was added to each well and incubated for 4 h. The supernatant was removed and DMSO (150 μL) was added to solubilize the formazan crystals. The amount of formazan was determined using a microplate reader at 570 nm after the plates were shaken for 30 min. The optical density (OD) was used to calculate the percentage of viable cells relative to untreated control values. Background readings for MTT incubated in cell-free medium were subtracted from each value before calculation. […] The mean IC50 values were calculated using data from three replicates.

[4] = reduction by ascorbic acid (AsA) followed by 1H-/195Pt-NMR; type: physicochemical; settings: 20 mM, 8 equiv. AsA, 5:1 d6-DMSO:D2O, 37 °C, dark
Description: Reduction of I and II. Samples were prepared by reacting I or II (20 mM) with 8 equiv. AsA in 5:1 d6-DMSO:D2O solutions. The time course of the reaction was monitored by ^1H-NMR and ^195Pt-NMR after incubation of the samples were incubated at 37 °C for 0, 3, 6, 12, 24, 36, 48, 60, 72, 84, 96, or 120 h in the dark.

[5] = tested on: cancer cell lines (MCF-7, Caov3, PANC-1, BxPC3, Pan02); experiment: 72 h MTT cytotoxicity, panel of cancer cell lines; type: cell-based
Description: as §1

[6] = tested on: Pan02 cells; experiment: Pan02 cell viability with cell death inhibitors / at matched Pt uptake; type: cell-based; settings: Pan02, I 0.2 μM; necrostatin-1 50 μM, ferrostatin 50 μM
Description: For Pan02 cells, the cell viability in the presence of different cell death inhibitors was also determined. Therefore, Pan02 cells were respectively pre-incubated with z-VAD-fmk (50 μM), 3-Methyladenine (100 μM), ferrostatin (50 μM), necrostatin-1 (50 μM) 1 h, and then co-incubated I (0.2 μM) for 72 h. The cell viability was then determined.
Fig. S17. (A) The chemical structure of Pt-E-I. (B) Cellular uptake of Pt (ng Pt/mg protein) in Pan02 cells after exposure to Pt-E-I (5 μM) for 6 h. NH4Cl: cells preincubated with 50 mM NH4Cl; MI: cells preincubated with 50 mM 2-deoxy-D-glucose and 5 μΜ oligomycin. (C) Cellular uptake of Pt (ng Pt/mg protein) in Pan02 cells after exposure to I and Pt-E-I (1, 2, 5, 10, 20 μM) for 6 h. (D) The cell viability of Pan02 treated with I (5 μM) and Pt-E-I (20 μM). (E) Hierarchical clustering of differentially expressed genes between I-treated (5 μM) Pan02 cells, Pt-E-I-treated (20 μM) and nontreated cells.

[7] = tested on: Caov3 cells; experiment: 72 h MTT cytotoxicity, Caov3; type: cell-based, human
Description: as §1

[8] = tested on: Pan02 tumors; experiment: scRNA-seq of Pan02 tumors; type: in vivo, mouse; settings: scRNA-seq at treatment endpoint, versus untreated
Source text: ScRNA-seq. Tumors were excised from individual mice after treatment using a dissecting microscope and pooled. The tumors were cryopreserved in FBS + 10% DMSO. Samples were subsequently thawed, washed, sorted to isolate living cells and then performed on the 10X Genomics 5’ Chromium v2.0 platform according to the manufacturer’s instructions. Libraries were generated per the manufacturer’s protocol and sequenced on an Illumina HiSeq 2500 with the “rapid run” mode according to the standard 10X Genomics protocol. Data analysis was conducted by Singleron Biotech. Co. Ltd. using Cellranger and R.
Cell type annotation. The cell type identity of each cluster was determined from the expression of canonical markers found in the DEGs using SynEcoSys database. Heatmaps displaying the expression of markers used to identify each cell type were generated by Seurat v3.12 DoHeatmap.

[9] = tested on: Pan02 cells; experiment: 72 h MTT cytotoxicity, Pan02; type: cell-based, mouse
Description: as §1

[10] = tested on: PANC-1 cells; experiment: 72 h MTT cytotoxicity, PANC-1; type: cell-based, human
Description: as §1

COc1cc2cc(C(=O)CCC(=O)[O][Pt]([NH2])([NH2])([OH])([Cl])[Cl])sc2cc1OC [conjugate I]
cellular Pt levels after preincubation with metabolic inhibitors (MIs) ([1]; PANC-1, 5 μM, 6 h, 50 mM 2-deoxy-D-glucose and 5 μM oligomycin, versus no MI pretreatment): significantly decreased | intracellular Pt levels after pretreatment with endocytosis inhibitor NH4Cl ([1]; PANC-1, 5 μM, 6 h, 50 mM NH4Cl): did not significantly change | fold increase of cellular Pt compared with CDDP ([1]; PANC-1 cells, 6 h): 92 fold | fold increase of cellular Pt compared with conjugate II ([1]; PANC-1 cells, 6 h): 68 fold | cellular Pt content ([1]; PANC-1 cells, 6 h incubation, ICP-MS): 155.7 ng Pt/mg protein | platination of cellular DNA [2]: stronger than that by CDDP or conjugate II | IC50 [3]: 300 ± 100 nM | time at which reduction by AsA finished [4]: 24 h | IC50 in these cancer cell lines [5]: submicromolar | cell killing on co-incubation with necroptosis and ferroptosis inhibitors [6]: significant reversal of cell killing | IC50 [7]: 700 ± 100 nM | frequencies of CD8 effector T, CD4 T and NK cells [8]: increased | percentage of tumor cells [8]: decreased | IC50 [9]: 50 ± 10 nM | IC50 [10]: 60 ± 20 nM
